These results are taken from patent publication US20230365673A1, “MEANS FOR REDUCING RADIO- AND CHEMOTHERAPY RESISTANCE AND ADVERSE EFFECTS” (JOHANN WOLFGANG GOETHE-UNIVERSITÄT FRANKFURT AM MAIN, priority 2020, published 2023).

Experiment [1] relates to primary mouse colon fibroblasts. The experiment can be described thus: Inflammatory gene expression (RT-qPCR/RNAseq) in fibroblasts treated with APTKA conditioned medium. Format: cell-based. The conditions noted are these: APTKA conditioned medium, 24 h, RT-qPCR. How it is done:
(A) Schematic illustration of APTKA or APTK organoids supernatant collection and treatment of primary mouse colon fibroblasts of unchallenged wildtype C57BL/6 mice. […] (F) Relative expression analysis by RT-qPCR of inflammatory genes in untreated wildtype and APTKA conditioned medium treated fibroblasts in the presence of IKKß inhibitor ML120B (30 μM) and p38 MAPK inhibitor SB203580 (10 μM) for 24 h (n=4 independent wells per group). Data are mean±SD. p<0.05 by one-way ANOVA followed by Tukey's multiple comparisons test. Representative results from one experiment which has been independently repeated 3 times. (G and H) RNA sequencing analysis of APTKA (n=3) and APTK (n=3) organoids: (G) heat map analysis; (H) differentially expressed cytokines in APTKA (Log 2 fold change≤−1) compared to APTK organoids (log 2 fold Change≥1). p-value<0.05. (I) RT-qPCR analysis of inflammatory genes in APTKA conditioned fibroblasts treated with control IgG, α-IL-1α, α-IL-33, α-TNF-α, α-BAFF or α-CXCL16 neutralizing antibodies (2 μg/mL each) for 24 h (n=4 independent wells per group). Data are mean±SD. **** p<0.0001 by one-way ANOVA followed by Tukey's multiple comparisons test. Experiment performed twice. (J) RNA expression profiles of inflammatory genes in APTKA conditioned fibroblasts stimulated for 24 h then subjected to anakinra (10 μg/mL), APTKA fresh or regular medium treatments for another 24 h (n=4 independent wells per condition). Data are mean±SD; p<0.05 by one-way ANOVA followed by Tukey's multiple comparisons test. Representative results from one experiment which has been independently repeated 2 times.
To examine whether APTK and APTKA tumour organoids differentially affect surrounding fibroblasts in tumours directly in a paracrine manner, supernatants were collected from both tumour organoid lines and treated primary intestinal fibroblasts of unchallenged wildtype mice for 24 hours with the two different tumour-conditioned media ex vivo (FIG. 3A). RNAseq analysis confirmed distinct gene expression patterns in fibroblasts exposed to the two organoid supernatants (FIG. 3B).
The inventors then aimed to identify the upstream factors secreted by APTKA organoids that were responsible for activating NF-κB and p38 in fibroblasts. To this end RNAseq analysis of APTK and APTKA tumour organoids were performed and identified several differentially expressed genes encoding cytokines (FIG. 3G, H). Using neutralizing antibodies, NF-κB and p38 inducing cytokines TNFα, IL-1α, IL-33, BAFF or CXCL16 were blocked in APTKA supernatants and expression of Cxcl1, Cxcl2, Cxcl5 and Ilia as inflammatory marker genes in fibroblasts was examined.
To do so, fibroblasts were stimulated for 24 hours with APTKA conditioned medium before adding anakinra, adding fresh APTKA medium or changing medium to regular medium.

The subject of experiment [2] is APTKA conditioned fibroblasts. The experiment can be described thus: Senescence induction in fibroblasts treated with APTKA-conditioned medium. Format: cell-based, mouse. The conditions noted are these: APTKA-conditioned medium plus W1400. How it is done:
(§1) (A) Schematic illustration of APTKA organoids supernatant collection and treatment of colon fibroblasts from unchallenged wildtype C57BL/6 mice for 12 h followed by 3×2 Gy irradiation. Microscopic, proteomic & transcriptomic analysis were performed 72 h post first irradiation. (B) Microscopic captures of non-irradiated wildtype (WT) and APTKA conditioned fibroblasts. Remaining captures belong to irradiated fibroblasts: WT, IL-1α (1 μg/mL) stimulated WT, and APTKA conditioned media minus or plus anakinra (20 μg/mL) treated fibroblasts. Scale bars=200 μm. (C) Mass spectrometric analysis of matrisome profiles of 3×2 Gy irradiated (n=8) and non-irradiated (n=8) APTKA conditioned fibroblasts. […] (G) Immunoblot analysis of untreated and irradiated APTKA conditioned fibroblasts. Representative results from one experiment which has been independently repeated 2 times. (H) SA-ß gal staining of untreated and irradiated APTKA fibroblasts. Scale bars=100 μm. (I and J) p21 and pH2AX immunofluorescent staining of untreated and irradiated APTKA fibroblasts. Scale bars=[…]. Data are mean±SD. ** […] and *** p<0.001 by t-test. (K) Nitrite concentration determined by Griess assay in conditioned media from WT, APTK media, APTKA media, IL-1α (1 μg/mL) stimulated and APTKA plus anakinra (20 μg/mL) treated fibroblasts for 72 h (n=10 independent wells per group). […]

Experiment [3] concerns colon fibroblasts. The experiment can be described thus: Nitrite concentration by Griess assay in fibroblast supernatants. Format: cell-based, mouse. The conditions noted are these: APTKA-conditioned medium plus W1400 1 mM. The procedure:
as §1
In general terms: The Griess reaction detects nitrite, a stable product of nitric oxide.

Experiment [4] has as its system colon fibroblasts. The experiment can be described thus: Oxidative DNA damage by 8-OHdG immunofluorescence in fibroblasts. The class given is cell-based, mouse. The conditions noted are these: APTKA-conditioned medium plus W1400 1 mM, 72 h. The procedure: as §1
In experiment [5] the test system is IL-1α stimulated human fibroblasts. The experiment can be described thus: p21, pH2AX and SA-βgal staining of IL-1α stimulated fibroblasts. The class given is cell-based. The conditions noted are these: IL-1α 1 μg/mL stimulated, 5-FU treated vs untreated. The procedure: (§2) FIG. 7: (A) APTKA organoids orthotopic transplantation into C57BL/6 mice followed by 5-fluorouracil (5-FU) chemotherapy (20 mg/Kg/day every 4 days for 21 days—experiment end point). Tumour area (mm3), % invasive area and liver metastasis frequency in untreated and 5-FU treated APTKA tumours (n=2 mice per group). Significant p-value<0.05 by t-test. (B and C) p21, pH2Ax IF and SA-ß gal staining quantifications and representative SA-ß gal staining images among untreated and 5-FU treated IL-1α (1 μg/mL) stimulated human fibroblasts and APTKA conditioned medium treated mouse fibroblasts. Significant p-value<0.05. Results representative of 4 independent experiments. Scale bars=100 μm.
Moreover, the inventors investigated the influence of chemotherapy on the IL-1α mediated changes to the tumour microenvironment in human cancer patients. Using staining experiments, the upregulation of pH2AX, p21, and SA-βgal in untreated and 5-FU treated IL-1α (1 μg/mL) stimulated human fibroblasts was quantified. […] Thus, targeting IL-1 in combination with chemotherapy may provide a substantial benefit particularly in tumours that are known to contain inflammatory cancer-associated fibroblasts such as pancreatic cancer, breast cancer or head and neck cancers.

The subject of the next experiment is APTKA orthotopic tumours. Nature of the experiment: Orthotopic APTKA organoid model with 5-FU chemotherapy, with or without radiotherapy. The class given is in vivo, C57BL/6 mice. The conditions noted are these: 21 days. The procedure: as §2
The inventors further investigated, whether therapy resistance of tumours during treatment with cytotoxic chemotherapy is also connected to the senescence behavior of CAFs. For this, the orthotopic APTKA organoid C57BL/6 mice of the inventors' murine model were divided in three groups and subjected to different treatments. The groups consisted of a control group of untreated mice, a second group that was administered 20 mg/kg/day of the cytotoxic chemotherapeutic agent […] (5-FU) every 4 days and a third group that was treated with a therapy based on a concomitant administration of 5-FU and radiation therapy based on a fractionated irradiation schedule (5×2 Gy). After 21 days of treatment, parameters of tumour progression were determined. […] Overall, in vivo administration of the chemotherapy aggravated invasive growth and stimulated formation of liver metastases similarly to irradiation.

In experiment [6] the test system is APTKA medium conditioned mouse fibroblasts. Nature of the experiment: p21, pH2AX and SA-βgal staining of APTKA medium conditioned fibroblasts. The conditions noted are these: 5-FU treated vs non-treated. The class given is cell-based. The procedure: as §2
In staining experiments, the inventors quantified the presence of nuclear p21, nuclear phosphorylated H2AX (pH2AX) and SA-βgal in APTKA medium conditioned mouse fibroblasts that were either left untreated or treated with 5-FU. […] (FIG. 7B). Overall, these experiments confirmed a chemotherapy induced senescence of the fibroblasts, when exposed to 5-FU.

[7] abbreviates: 5-FU only, 20 mg/kg/day every 4 days, vs untreated control.
[8] abbreviates: concomitant 5-FU and radiotherapy (5×2 Gy), vs untreated control.

In the case of `COc1c(Cl)cc2c([nH]c3cnccc32)c1NC(=O)c1cccnc1C` [ML120B], the “induction of pro-inflammatory genes (Cxcl1, Cxcl2, Cxcl5, Mmp9, Mmp13, Il1a, 116, Tnfa, Nos2)” value in experiment [1] (ML120B 30 μM) is “significantly inhibited the induction of pro-inflammatory genes”.

As to `C[S+]([O-])c1ccc(-c2nc(-c3ccncc3)c(-c3ccc(F)cc3)[nH]2)cc1` (centres unmarked) [SB203580], in experiment [1] (SB203580 10 μM), the “induction of pro-inflammatory genes (Cxcl1, Cxcl2, Cxcl5, Mmp9, Mmp13, Il1a, 116, Tnfa, Nos2)” value is given as “significantly inhibited the induction of pro-inflammatory genes”.

Turning to `CC(=N)NCc1cccc(CN)c1` [W1400], the senescence induction entry in experiment [2] is recorded as “prevented oxidative DNA damage as well as senescence induction”. The nitrite production result in the experiment with colon fibroblasts [3] is “blocked nitrite production”. Besides, the “oxidative DNA damage (8-OHdG immunofluorescence)” value in the experiment with colon fibroblasts [4] was “prevented oxidative DNA damage”.

`O=c1[nH]cc(F)c(=O)[nH]1` [5-FU, 5-fluorouracil]: in experiment [5], the SA-βgal result is listed as “significant increase of all three biomarkers”, the p21 result is “significant increase of all three biomarkers” and the pH2AX result was “significant increase of all three biomarkers”. In the experiment on APTKA orthotopic tumours (setting [7]), the liver metastases entry is “have developed liver metastases”; the tumour area entry is reported as “significant increase in tumour area”; the “tumour invasiveness (% invasive area)” value is “significant increase in tumour area and tumour invasiveness”. Also, in the experiment on APTKA orthotopic tumours (concomitant 5-FU and radiotherapy (5×2 Gy)), the liver metastases result is given as “every mouse of this group suffered from liver metastases”. For the same compound, in the experiment on APTKA orthotopic tumours (setting [8]), the invasive area result is “significant increase in tumour area and invasive area”; the tumour area entry is on record as “significant increase in tumour area”. In addition, in experiment [6], the SA-βgal staining result is “significant upregulation of SA-βgal”; the “nuclear p21” value is “significant upregulation of SA-βgal and nuclear p21”; the “nuclear phosphorylated H2AX (pH2AX)” value is recorded as “significant increase of pH2AX”.
